SMILES strings stand for the structures.

Data set [1] concerns the target Trypsin (Homo sapiens, UniProt P07477+P07478+P35030). Nature of the data set: Inhibition of human trypsin by Dixon-plot method. The data set is classed as protein assay.
Data set [2] addresses Coagulation factor X (Homo sapiens, UniProt P00742). Nature of the data set: Inhibition of human factor 10a by Dixon-plot method.
The test system of data set [3] is Rattus norvegicus. The data set can be described thus: Stability in iv dosed rat assessed as prodrug conversion. Format: ADME, organism-based. The following applies: in vivo.
A short description of data set [4]: Total clearance in iv dosed rat. As to conditions: in vivo. The data set is classed as ADME, organism-based.
A short description of data set [5]: Oral bioavailability in rat. Format: ADME, organism-based. The following applies: in vivo.
The test system of data set [6] is Plasma. Nature of the data set: Anticoagulant activity in human plasma assessed as concentration required to double prothrombin time. Format: functional.
Data set [7] can be described thus: Systemic clearance in rat. The data set is classed as ADME, organism-based. As to conditions: in vivo.
Data set [8] has as its system Mus musculus. Nature of the data set: Antithrombotic activity against thromboplastin-induced lethal thromboembolism in po dosed thrombosis mouse model assessed as survival. Format: functional.
The nature of data set [9]: Oral bioavailability in mouse at 30 mg/kg. Format: ADME, organism-based. As to conditions: in vivo.
Data set [10] has as its target Prothrombin (Homo sapiens, UniProt P00734). The data set can be described thus: Inhibition of human thrombin by Dixon-plot method.
The nature of data set [11]: Oral bioavailability in mouse. Format: ADME, organism-based. The following applies: in vivo.
Data set [12] can be described thus: Oral bioavailability in rabbit. The data set is classed as ADME, organism-based, Oryctolagus cuniculus. As to conditions: in vivo.
Data set [13] is described as follows: Oral bioavailability in dog. Format: ADME, organism-based, Canis lupus familiaris. The following applies: in vivo.
Data set [14] can be described thus: Oral bioavailability in cynomolgus monkey. The data set is classed as ADME, organism-based, Macaca fascicularis. The following applies: in vivo.

Sequence of Coagulation factor X (P00742 41-179 limits assumed): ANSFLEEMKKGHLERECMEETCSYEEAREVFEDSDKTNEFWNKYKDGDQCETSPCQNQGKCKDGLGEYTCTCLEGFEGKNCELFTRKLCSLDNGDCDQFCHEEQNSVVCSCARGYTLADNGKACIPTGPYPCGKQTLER
Sequence of Coagulation factor X (P00742 235-488 limits assumed): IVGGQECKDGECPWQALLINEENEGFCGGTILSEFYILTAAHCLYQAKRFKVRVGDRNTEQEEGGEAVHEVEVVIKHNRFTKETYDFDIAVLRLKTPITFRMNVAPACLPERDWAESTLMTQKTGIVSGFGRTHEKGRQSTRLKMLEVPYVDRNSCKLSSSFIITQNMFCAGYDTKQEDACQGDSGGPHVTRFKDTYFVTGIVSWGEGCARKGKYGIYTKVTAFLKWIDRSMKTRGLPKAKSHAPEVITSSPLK

In the case of `CC(C)c1ccc(CCN(C)S(=O)(=O)c2cc(C(=N)N)ccc2O)cc1`, the inhibition constant Ki worked out at 770 nM in data set [1] and 59 nM in data set [2].
`CC(C)c1ccc(CCNS(=O)(=O)c2cc(/C(N)=N/O)ccc2O)cc1`: the Activity in data set [3] worked out at 1%. In data set [4], this compound displayed a clearance of 27 mL/min. For the same compound, the inhibition constant (Ki) in [2] came to 7300 nM. The bioavailability in data set [5] is 6.6%.
Regarding `CC(C)c1ccc(CCN(CC(=O)O)S(=O)(=O)c2cc(C(=N)N)ccc2O)cc1`, the clearance in [4] and in [7] was 8.1 mL/min throughout. Further, in data set [6], the Activity amounted to 1.4 µM. For the same compound, the inhibition constant (Ki) in data set [2] is 14 nM.
In data set [2], `CCOC(=O)CN(CCc1ccc(C(C)C)cc1)S(=O)(=O)c1cc(/C(N)=N/O)ccc1O` yielded a Ki of 3700 nM. For the same compound, the bioavailability in data set [5] was less than 1%.
Regarding `CS(=O)(=O)c1ccccc1-c1ccc(CCNS(=O)(=O)c2cc(C(=N)N)ccc2O)c(OCC(=O)O)c1`, the clearance in [4] amounted to 7.5 mL/min.
Compound `CS(=O)(=O)c1ccccc1-c1ccc(CCNS(=O)(=O)c2cc(C(=N)N)ccc2O)c(NCC(=O)O)c1` gave a clearance in data set [4] of 25 mL/min. Also, the inhibition constant Ki in [2] came out at 5.7 nM.
Consider `CC(C)(C)c1ccc(CCNS(=O)(=O)c2cc(C(=N)N)ccc2O)cc1`, for which the Ki in [2] turned out to be 27 nM.
`CC(C)c1ccc(CCNS(=O)(=O)c2cc(C(=N)N)ccc2Cl)cc1`: the inhibitory constant (Ki) worked out at 4000 nM in [1] and 3000 nM in [2].
With `COc1ccc(C(=N)N)cc1S(=O)(=O)NCCc1ccc(C(C)C)cc1`, in data set [2], the affinity, expressed as Ki, was 14000 nM.
In data set [2], `CCOC(=O)COc1cc(C(C)C)ccc1CCNS(=O)(=O)c1cc(C(=N)NO)ccc1O` had a Ki of 3500 nM. In addition, in data set [5], the bioavailability worked out at 13%. The ED50 in data set [8] was 15.8 mg/kg.
In data set [4], `CC(C)c1ccc(CCNS(=O)(=O)c2cc(C(=N)N)ccc2O)c(NCC(=O)O)c1` had a clearance of 3.2 mL/min. In addition, the Ki in [2] was determined as 62 nM.
In turn, `CC(C)c1ccc(CCNS(=O)(=O)c2cc(C(=N)N)ccc2O)c(OCC(=O)O)c1` had a clearance in [4] of 1.7 mL/min. In addition, the Activity in data set [6] came out at 7.2 µM. The same compound yielded a Ki in data set [2] of 51 nM. In [9], this compound yielded a bioavailability of 38%.
Turning to `CC(C)c1ccc(CCNS(=O)(=O)c2cc(/C(N)=N/O)ccc2O)c(OCC(=O)O)c1`, in data set [3], the Activity was determined as 57%. The same compound returned a clearance in data set [4] of 7.5 mL/min. The same compound came in with a Ki in [2] greater than 10000 nM. Besides, the bioavailability in data set [5] came to 9.2%.
`CC(C)c1ccc(CCNS(=O)(=O)c2cc(C(=N)N)ccc2O)c(NC(=O)C(=O)O)c1` returned a clearance in [4] of 20 mL/min. The inhibitory constant (Ki) in [2] was found to be 9.7 nM.
For `CS(=O)(=O)c1ccccc1-c1ccc(CCNS(=O)(=O)c2cc(C(=N)N)ccc2O)c(OCC(=O)O)c1.Cl`, the Activity in data set [6] amounted to 1.01 µM. Moreover, the inhibition constant Ki in data set [1] is 1170 nM; in data set [10], 57800 nM.
For the compound `CC(=N)N1CCC(c2ccc(NC(=O)CN(Cc3cccc(OCC(=O)O)c3)c3cccc(C(=N)N)c3)cc2)CC1`, in data set [4], the clearance stood at 23 mL/min. For the same compound, the Activity in data set [6] was 0.84 µM. Further, the Ki in [1] was 6170 nM; in data set [10], 26000 nM. In [5], this compound showed a bioavailability of 0.9%.
In data set [4], `CC(C)c1ccc(CCNS(=O)(=O)c2cc(C(=N)N)ccc2O)cc1` came in with a clearance of 27 mL/min. In data set [6], the Activity is 2.6 µM. Moreover, the values for the Ki in data set [1], in data set [10] and in data set [2] were 800 nM, greater than 10000 nM and 29 nM, respectively. For the same compound, in data set [5], the bioavailability was 3.7%.
With `CCCCOC(=O)COc1cc(-c2ccccc2S(C)(=O)=O)ccc1CCNS(=O)(=O)c1cc(C(=N)NO)ccc1O.Cl`, the bioavailability stood at 15% in data set [11], 23% in data set [12], 4.9% in data set [13] and 11% in data set [14].
Regarding `CC(C)c1ccc(CCN(CC(=O)O)S(=O)(=O)c2cc(/C(N)=N/O)ccc2O)cc1`, the Activity in data set [3] is 16%. This compound also registered a clearance in data set [4] of 13 mL/min. The compound also came in with a Ki in data set [2] of 7000 nM.
In data set [1], `CC(C)c1ccc(CCNS(=O)(=O)c2cccc(C(=N)N)c2)cc1` gave an IC50 of 9700 nM. Also, the Ki in data set [10] was greater than 10000 nM; in data set [2], 2100 nM.
Turning to `CC(C)Oc1ccc(CCNS(=O)(=O)c2cc(C(=N)N)ccc2O)cc1`, the IC50 in [1] is listed as 1700 nM. Besides, the Ki was greater than 10000 nM in data set [10] and 100 nM in data set [2].

For orientation: Ki means a measure of affinity in units of concentration, obtained from inhibition or displacement. As a reminder, the clearance is a measure of how efficiently the substance is removed, as volume per time. Broadly, the bioavailability is dose-corrected exposure relative to a reference, in per cent. The ED50 is the dose at which the effect has come halfway, by size or by number of responders. One may read the IC50 as the midpoint of a concentration-inhibition curve.

The values above are taken from ChEMBL document CHEMBL1156579, “Orally active factor Xa inhibitors: investigation of a novel series of 3-amidinophenylsulfonamide derivatives using an amidoxime prodrug strategy” (Bioorg Med Chem Lett, 2008).
